# Experiments:
# S. intermedius (1051997) = test: MIC determination by microplate dilution, S. intermedius animal strain; format: cell-based, Staphylococcus intermedius; details: Staphylococcus intermedius, Gram-positive, Mueller-Hinton medium, 24 h, 37° C.
# Method in brief: (§1)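 Strains precultured in Mueller-Hinton broth 24 h at 37 °C; compounds from 5 mg/mL stocks in DMSO/methanol 50/50, twofold serial dilution in 96-well plates, inoculum set to OD 0.01. Incubated 24 h at 37 °C, humid; OD read at 620 nm to derive MIC, duplicates.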
# E. faecalis ATCC29212 = test: MIC determination by microplate dilution, E. faecalis human strain; format: cell-based, Enterococcus faecalis; details: Enterococcus faecalis, ATCC29212, Gram-positive, Mueller-Hinton medium, 24 h, 37° C.
# Method in brief: as §1
# P. aeruginosa ATCC27853 = test: MIC determination by microplate dilution, P. aeruginosa human strain; format: cell-based, Pseudomonas aeruginosa; details: Pseudomonas aeruginosa, ATCC27853, Gram-negative, Mueller-Hinton medium, 24 h, 37° C.
# Method in brief: as §1
# CHO-K1 cells = test: WST1 cytotoxicity test on CHO-K1 cells; format: cell-based, Chinese hamster; details: Cricetulus griseus, CHO-K1, read-out: IC50 (μg/mL) CHO
# Method in brief: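 CHO-K1 cells seeded 24 h, then exposed to increasing compound concentrations in duplicate for 24 h at 37 °C, 5% CO2. Viability by WST-1 reduction (20 min, 37 °C), absorbance at 450 nm. IC50 = concentration reducing viability by 50%, from nonlinear regression of dose-response.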
# P. aeruginosa (1051575) = test: Potentiation of the doxycycline activity at 2 μg/mL; format: cell-based, Pseudomonas aeruginosa; details: in combination with doxycycline 2 μg/mL; 24 h, 37°
# C. albicans = test: Antifungal activity, cascade microdilution, C. albicans; format: cell-based, Candida albicans; details: Candida albicans, 24 h, read-out: IC50 (μg/mL) C. albicans
compound,measurement,setting,value
"CC(C)OC(=O)CC[C@@H](C)[C@H]1CCC2C3C(CC[C@@]21C)[C@@]1(C)CC[C@H](NCCCN(CCCN)CCCN)CC1C[C@H]3O (stereo partly drawn) [(39), isopropyl 3β-(tris(3-aminopropyl)amine)chenodeoxycholate]",MIC,S. intermedius (1051997),3.5 µg/mL
same,MIC,E. faecalis ATCC29212,14 µg/mL
same,MIC,P. aeruginosa ATCC27853,28 µg/mL
same,IC50,CHO-K1 cells,110 µg/mL
same,MIC - P. aeruginosa (1051575): content of compound of formula (I) to restore the doxycycline activity (at 2 μg/mL),P. aeruginosa (1051575),2 µg/mL
same,IC50,C. albicans,4 µg/mL
